Measured values published in PubChem BioAssay AID1919009 (Molecular Pharmacology Branch, DTP, NCI, 2023).

Test system: K24384-001-R-PDC complex spheroid growth
Test: Anticancer human tumor K24384-001-R-PDC patient-derived pancreatic adenocarcinoma cell line growth inhibition [AhR]
Conditions: for IC50: curve of first compound; for viability, T/C: stronger effect = lower value; active = viability on the fitted dose curve at most 10% of control; inactive = the rest
Outline: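 Spheroids combined tumor cells with HUVEC endothelial cells and human MSCs as stroma. AhR antagonists were paired with standard or investigational drugs, each dosed in half-log steps down from near clinical Cmax, or from 10 microM where Cmax was unknown.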
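For viability, T/C in this document: percent of DMSO vehicle-treated spheroid viability set as 100%.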

Nc1ncn(C2CC(O)C(CO)S2)c(=O)n1 (stereo not given) + Cc1cncc(-c2nc(NCCc3c[nH]c4ccccc34)c3ncn(C(C)C)c3n2)c1
> 300 nM: IC50 (second compound 0.1 µM) | IC50 (second compound 0.316 µM) | IC50 (second compound 1 µM)
< 0.949 nM: IC50 (second compound 3.16 µM) | IC50 (second compound 10 µM)
inactive: viability, T/C (second compound 0.1 µM, first compound 0.000949 µM) 122% | viability, T/C (second compound 0.1 µM, first compound 0.003 µM) 126% | viability, T/C (second compound 0.1 µM, first compound 0.00949 µM) 116% | viability, T/C (second compound 0.1 µM, first compound 0.03 µM) 101% | viability, T/C (second compound 0.1 µM, first compound 0.0949 µM) 78.1% | viability, T/C (second compound 0.1 µM, first compound 0.3 µM) 73.5% | viability, T/C (second compound 0.316 µM, first compound 0.000949 µM) 134% | viability, T/C (second compound 0.316 µM, first compound 0.003 µM) 137% | viability, T/C (second compound 0.316 µM, first compound 0.00949 µM) 122% | viability, T/C (second compound 0.316 µM, first compound 0.03 µM) 119% | viability, T/C (second compound 0.316 µM, first compound 0.0949 µM) 98.1% | viability, T/C (second compound 0.316 µM, first compound 0.3 µM) 84% | viability, T/C (second compound 1 µM, first compound 0.000949 µM) 173% | viability, T/C (second compound 1 µM, first compound 0.003 µM) 162% | viability, T/C (second compound 1 µM, first compound 0.00949 µM) 177% | viability, T/C (second compound 1 µM, first compound 0.03 µM) 129% | viability, T/C (second compound 1 µM, first compound 0.0949 µM) 111% | viability, T/C (second compound 1 µM, first compound 0.3 µM) 96% | viability, T/C (second compound 3.16 µM, first compound 0.000949 µM) 28.2% | viability, T/C (second compound 3.16 µM, first compound 0.003 µM) 38.4% | viability, T/C (second compound 3.16 µM, first compound 0.00949 µM) 43.5% | viability, T/C (second compound 3.16 µM, first compound 0.03 µM) 28.2% | viability, T/C (second compound 3.16 µM, first compound 0.0949 µM) 29.9% | viability, T/C (second compound 3.16 µM, first compound 0.3 µM) 27.4% | viability, T/C (second compound 10 µM, first compound 0.000949 µM) 18.1% | viability, T/C (second compound 10 µM, first compound 0.003 µM) 28.5% | viability, T/C (second compound 10 µM, first compound 0.00949 µM) 24.7% | viability, T/C (second compound 10 µM, first compound 0.03 µM) 12.8% | viability, T/C (second compound 10 µM, first compound 0.0949 µM) 15.5% | viability, T/C (second compound 10 µM, first compound 0.3 µM) 18.5%

COc1cc(Nc2ncc3c(n2)-c2ccc(Cl)cc2C(c2c(F)cccc2OC)=NC3)ccc1C(=O)O + Cc1cncc(-c2nc(NCCc3c[nH]c4ccccc34)c3ncn(C(C)C)c3n2)c1
10000 nM: IC50 (second compound 3.16 µM)
2150 nM: IC50 (second compound 0.316 µM)
< 31.6 nM: IC50 (second compound 10 µM)
inactive: viability, T/C (second compound 0.1 µM, first compound 0.0316 µM) 81.9% | viability, T/C (second compound 0.1 µM, first compound 0.1 µM) 70.1% | viability, T/C (second compound 0.1 µM, first compound 0.316 µM) 69.6% | viability, T/C (second compound 0.1 µM, first compound 1 µM) 43.9% | viability, T/C (second compound 0.1 µM, first compound 3.16 µM) 53.1% | viability, T/C (second compound 0.1 µM, first compound 10 µM) 49.9% | viability, T/C (second compound 0.316 µM, first compound 0.0316 µM) 95% | viability, T/C (second compound 0.316 µM, first compound 0.1 µM) 66.4% | viability, T/C (second compound 0.316 µM, first compound 0.316 µM) 68% | viability, T/C (second compound 0.316 µM, first compound 1 µM) 41.1% | viability, T/C (second compound 0.316 µM, first compound 3.16 µM) 53.4% | viability, T/C (second compound 0.316 µM, first compound 10 µM) 47.7% | viability, T/C (second compound 1 µM, first compound 0.0316 µM) 85.3% | viability, T/C (second compound 1 µM, first compound 0.1 µM) 82.7% | viability, T/C (second compound 1 µM, first compound 0.316 µM) 75.2% | viability, T/C (second compound 1 µM, first compound 1 µM) 63% | viability, T/C (second compound 1 µM, first compound 3.16 µM) 50.3% | viability, T/C (second compound 1 µM, first compound 10 µM) 51.5% | viability, T/C (second compound 3.16 µM, first compound 0.0316 µM) 80.5% | viability, T/C (second compound 3.16 µM, first compound 0.1 µM) 77.2% | viability, T/C (second compound 3.16 µM, first compound 0.316 µM) 72.8% | viability, T/C (second compound 3.16 µM, first compound 1 µM) 44.8% | viability, T/C (second compound 3.16 µM, first compound 3.16 µM) 58.6% | viability, T/C (second compound 3.16 µM, first compound 10 µM) 62.1% | viability, T/C (second compound 10 µM, first compound 0.0316 µM) 11.1% | viability, T/C (second compound 10 µM, first compound 0.1 µM) 11.8% | viability, T/C (second compound 10 µM, first compound 0.316 µM) 10.3% | viability, T/C (second compound 10 µM, first compound 1 µM) 9.55% | viability, T/C (second compound 10 µM, first compound 3.16 µM) 9.44% | viability, T/C (second compound 10 µM, first compound 10 µM) 17%
> 10000 nM: IC50 (second compound 1 µM)
943 nM: IC50 (second compound 0.1 µM)
